Assays:
PTPN2 [1] = target: T1, PTPN2 (Homo sapiens, UniProt P17706); assay: HiBiT-Degradation 293T.109 PTPN2 (Nano-Glo HiBiT Lytic Assay); format: cell-based; conditions: 293T.109 (HiBiT-PTPN2) cells, 24.0 hours
T1 construct: expressed in transfected cells; host or cells: 293T (293T.109 HiBiT-PTPN2 line; parental 293T WT from ATCC)
T1 sequence (P17706 1-415): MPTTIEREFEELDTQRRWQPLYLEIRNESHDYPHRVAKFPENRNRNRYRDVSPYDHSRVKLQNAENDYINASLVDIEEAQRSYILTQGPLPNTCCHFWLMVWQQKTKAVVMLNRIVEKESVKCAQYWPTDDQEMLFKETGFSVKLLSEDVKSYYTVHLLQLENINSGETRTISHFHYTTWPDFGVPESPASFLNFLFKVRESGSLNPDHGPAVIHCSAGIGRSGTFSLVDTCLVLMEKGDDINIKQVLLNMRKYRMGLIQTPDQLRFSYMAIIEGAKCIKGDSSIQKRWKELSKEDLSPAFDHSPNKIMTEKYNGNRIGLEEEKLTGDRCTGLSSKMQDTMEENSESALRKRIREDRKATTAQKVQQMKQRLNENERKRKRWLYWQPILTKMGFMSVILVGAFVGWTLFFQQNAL
Procedure, shortened: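 293T cells ectopically expressing N-terminally HiBiT-tagged PTPN2 were seeded at 5000 cells/well. They were treated with an 11-point half-log titration from 10 μM, in duplicate, for 24 hours at 37° C., 5% CO2. Remaining tagged PTPN2 was quantified by lytic HiBiT luminescence against untreated and no-reagent controls.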

PTPN2 [2] = assay: HiBiT-Degradation B16F10.4 PTPN2; format: cell-based; conditions: B16F10.4 cells, 24.0 hours

Structure (SMILES) | DC50 (PTPN2 [1]) [nM] | DC50 (PTPN2 [2]) [nM]
Cn1c(=O)n(C2CCC(=O)NC2=O)c2ccc(C3CCN(CCn4cc(-c5ccc6cc(O)c(N7CC(=O)NS7(=O)=O)c(F)c6c5)cn4)CC3)cc21 (stereo not shown) [Example 135, 3-[5-[1-[2-[4-[8-fluoro-6-hydroxy-7-(1,1,4-trioxo-1,2,5-thiadiazolidin-2-yl)-2-naphthyl]pyrazol-1-yl]ethyl]-4-piperidyl]-3-methyl-2-oxo-benzimidazol-1-yl]piperidine-2,6-dione] | 50 to 200 | 50 to 200
O=C(CCOCCOCCn1cc(CNc2cccc3c2C(=O)N(C2CCC(=O)NC2=O)C3=O)nn1)NCCOc1ccc2cc(O)c(N3CC(=O)NS3(=O)=O)c(F)c2c1 (stereo not shown) [Example 44] | ≥ 1000 | ≥ 1000
O=C1CCC(Nc2ccc(C3CCN(CC(=O)Nc4ccc5c(F)c(N6CC(=O)NS6(=O)=O)c(O)cc5c4)CC3(F)F)cc2)C(=O)N1 (stereo not shown) [Example 113, 2-[4-[4-[(2,6-dioxo-3-piperidyl)amino]phenyl]-3,3-difluoro-1-piperidyl]-N-[5-fluoro-7-hydroxy-6-(1,1,4-trioxo-1,2,5-thiadiazolidin-2-yl)-2-naphthyl]acetamide] | 200 to 1000 | 200 to 1000
O=C1CCC(n2c(=O)oc3cc(C4CCN(CC(=O)Nc5ccc6c(F)c(N7CC(=O)NS7(=O)=O)c(O)cc6c5)CC4)ccc32)C(=O)N1 (stereo not shown) [Example 23, 2-[4-[3-(2,6-dioxo-3-piperidyl)-2-oxo-1,3-benzoxazol-6-yl]-1-piperidyl]-N-[5-fluoro-7-hydroxy-6-(1,1,4-trioxo-1,2,5-thiadiazolidin-2-yl)-2-naphthyl]acetamide] | 10 to 50 | 50 to 200
Cn1c(=O)n(C2CCC(=O)NC2=O)c2ccc(Nc3ccc(NC(=O)c4ccc5c(F)c(N6CC(=O)NS6(=O)=O)c(O)cc5c4)cc3)cc21 (stereo not shown) [Example 132] | 50 to 200 | 200 to 1000
Cn1c(=O)n([C@@H]2CCC(=O)NC2=O)c2ccc(C3CCN(CC(=O)NCCOc4ccc5cc(O)c(N6CC(=O)NS6(=O)=O)c(F)c5c4)CC3)cc21 [Example 92, 2-[4-[1-[(3R)-2,6-dioxo-3-piperidyl]-3-methyl-2-oxo-benzimidazol-5-yl]-1-piperidyl]-N-[2-[[8-fluoro-6-hydroxy-7-(1,1,4-trioxo-1,2,5-thiadiazolidin-2-yl)-2-naphthyl]oxy]ethyl]acetamide] | 50 to 200 | 200 to 1000
Cn1c(=O)n(C2CCC(=O)NC2=O)c2ccc(C3CCN(CC(=O)N4CC[C@@H](COc5ccc6cc(O)c(N7CC(=O)NS7(=O)=O)c(F)c6c5)C4)CC3)cc21 (stereo partly drawn) [Example 131, 3-[5-[1-[2-[(3R)-3-[[8-fluoro-6-hydroxy-7-(1,1,4-trioxo-1,2,5-thiadiazolidin-2-yl)-2-naphthyl]oxymethyl]pyrrolidin-1-yl]-2-oxo-ethyl]-4-piperidyl]-3-methyl-2-oxo-benzimidazol-1-yl]piperidine-2,6-dione] | 10 to 50 | 50 to 200
Cn1c(=O)n(C2CCC(=O)NC2=O)c2ccc(C3CCN(CCNc4ccc5c(F)c(N6CC(=O)NS6(=O)=O)c(O)cc5c4)CC3)cc21 (stereo not shown) [Example 52] | ≥ 1000 | ≥ 1000
Cn1c(=O)n(C2CCC(=O)NC2=O)c2ccc(C3CCN(CCN4CC[C@@H](COc5ccc6cc(O)c(N7CC(=O)NS7(=O)=O)c(F)c6c5)C4)CC3)cc21 (stereo partly drawn) [Example 149, 3-[5-[1-[2-[(3R)-3-[[8-fluoro-6-hydroxy-7-(1,1,4-trioxo-1,2,5-thiadiazolidin-2-yl)-2-naphthyl]oxymethyl]pyrrolidin-1-yl]ethyl]-4-piperidyl]-3-methyl-2-oxo-benzimidazol-1-yl]piperidine-2,6-dione] | 10 to 50 | 50 to 200
Cn1c(=O)n(C2CCC(=O)NC2=O)c2ccc(N3CCN(CCn4cc(-c5ccc6cc(O)c(N7CC(=O)NS7(=O)=O)c(F)c6c5)cn4)CC3)cc21 (stereo not shown) [Example 110, 3-[5-[4-[2-[4-[8-fluoro-6-hydroxy-7-(1,1,4-trioxo-1,2,5-thiadiazolidin-2-yl)-2-naphthyl]pyrazol-1-yl]ethyl]piperazin-1-yl]-3-methyl-2-oxo-benzimidazol-1-yl]piperidine-2,6-dione] | 10 to 50 | 50 to 200
Cc1cc(CC(=O)Nc2ccc3c(F)c(N4CC(=O)NS4(=O)=O)c(O)cc3c2)ccc1Nc1ccc2c(C3CCC(=O)NC3=O)nn(C)c2c1 (stereo not shown) [Example 185, N-(6-(1,1-dioxido-4-oxo-1,2,5-thiadiazolidin-2-yl)-5-fluoro-7-hydroxynaphthalen-2-yl)-2-(4-((3-(2,6-dioxopiperidin-3-yl)-1-methyl-1H-indazol-6-yl)amino)-3-methylphenyl)acetamide] | 10 to 50 | 50 to 200
Cn1c(=O)n(C2CCC(=O)NC2=O)c2ccc(-c3ccc(CNCC(C)(C)CCOc4ccc5cc(O)c(N6CC(=O)NS6(=O)=O)c(F)c5c4)cc3)cc21 (stereo not shown) [Example 153, 3-[5-[4-[[[4-[[8-fluoro-6-hydroxy-7-(1,1,4-trioxo-1,2,5-thiadiazolidin-2-yl)-2-naphthyl]oxy]-2,2-dimethyl-butyl]amino]methyl]phenyl]-3-methyl-2-oxo-benzimidazol-1-yl]piperidine-2,6-dione] | 50 to 200 | 200 to 1000
Cn1c(=O)n(C2CCC(=O)NC2=O)c2ccc(N3CCC(CC(=O)N4CC=C(c5ccc6cc(O)c(N7CC(=O)NS7(=O)=O)c(F)c6c5)CC4)CC3)cc21 (stereo not shown) [Example 127, 3-[5-[4-[2-[4-[8-fluoro-6-hydroxy-7-(1,1,4-trioxo-1,2,5-thiadiazolidin-2-yl)-2-naphthyl]-3,6-dihydro-2H-pyridin-1-yl]-2-oxo-ethyl]-1-piperidyl]-3-methyl-2-oxo-benzimidazol-1-yl]piperidine-2,6-dione] | 50 to 200 | 200 to 1000
CN(CCOc1ccc2cc(O)c(N3CC(=O)NS3(=O)=O)c(F)c2c1)C(=O)CNCCCc1ccc2c3c(cccc13)C(=O)N2C1CCC(=O)NC1=O (stereo not shown) [Example 166, N-(2-((7-(1,1-dioxido-4-oxo-1,2,5-thiadiazolidin-2-yl)-8-fluoro-6-hydroxynaphthalen-2-yl)oxy)ethyl)-2-((3-(1-(2,6-dioxopiperidin-3-yl)-2-oxo-1,2-dihydrobenzo[cd]indol-6-yl)propyl)amino)-N-methylacetamide] | 50 to 200 | 200 to 1000
Cn1c(=O)n(C2CCC(=O)NC2=O)c2ccc(C3CCN(CC(=O)N4CCC(c5ccc6cc(O)c(N7CC(=O)NS7(=O)=O)c(F)c6c5)C4)CC3)cc21 (stereo not shown) [Example 90, 3-[5-[1-[2-[3-[8-fluoro-6-hydroxy-7-(1,1,4-trioxo-1,2,5-thiadiazolidin-2-yl)-2-naphthyl]pyrrolidin-1-yl]-2-oxo-ethyl]-4-piperidyl]-3-methyl-2-oxo-benzimidazol-1-yl]piperidine-2,6-dione] | 50 to 200 | 200 to 1000
Cn1c(=O)n(C2CCC(=O)NC2=O)c2ccc(C3CCN(CC(=O)NCCOc4ccc5cc(O)c(N6CC(=O)NS6(=O)=O)c(F)c5c4)CC3(F)F)cc21 (stereo not shown) [Example 140, 2-[4-[1-(2,6-dioxo-3-piperidyl)-3-methyl-2-oxo-benzimidazol-5-yl]-3,3-difluoro-1-piperidyl]-N-[2-[[8-fluoro-6-hydroxy-7-(1,1,4-trioxo-1,2,5-thiadiazolidin-2-yl)-2-naphthyl]oxy]ethyl]acetamide] | 50 to 200 | ≥ 1000
Cn1c(=O)n(C2CCC(=O)NC2=O)c2ccc(Nc3ccc(CC(=O)Nc4ccc5c(F)c(N6CC(=O)NS6(=O)=O)c(O)cc5c4)cc3)cc21 (stereo not shown) [Example 105, 2-[4-[[1-(2,6-dioxo-3-piperidyl)-3-methyl-2-oxo-benzimidazol-5-yl]amino]phenyl]-N-[5-fluoro-7-hydroxy-6-(1,1,4-trioxo-1,2,5-thiadiazolidin-2-yl)-2-naphthyl]acetamide] | 10 to 50 | 10 to 50
Cn1c(=O)n(C2CCC(=O)NC2=O)c2ccc(C3CCN(CCCCCCOc4ccc5cc(O)c(N6CC(=O)NS6(=O)=O)c(F)c5c4)CC3)cc21 (stereo not shown) [Example 98, 3-[5-[1-[6-[[8-fluoro-6-hydroxy-7-(1,1,4-trioxo-1,2,5-thiadiazolidin-2-yl)-2-naphthyl]oxy]hexyl]-4-piperidyl]-3-methyl-2-oxo-benzimidazol-1-yl]piperidine-2,6-dione] | 10 to 50 | 50 to 200
Cn1c(=O)n(C2CCC(=O)NC2=O)c2ccc(C3CCN(CC(C)(C)CCOc4ccc5cc(O)c(N6CC(=O)NS6(=O)=O)c(F)c5c4)CC3)cc21 (stereo not shown) [Example 157, 3-[5-[1-[4-[[8-fluoro-6-hydroxy-7-(1,1,4-trioxo-1,2,5-thiadiazolidin-2-yl)-2-naphthyl]oxy]-2,2-dimethyl-butyl]-4-piperidyl]-3-methyl-2-oxo-benzimidazol-1-yl]piperidine-2,6-dione] | 10 to 50 | 50 to 200
Cn1c(=O)n(C2CCC(=O)NC2=O)c2ccc(C3CCN(CC(=O)N4CC=C(c5ccc6cc(O)c(N7CC(=O)NS7(=O)=O)c(F)c6c5)CC4)CC3)cc21 (stereo not shown) [Example 119, 3-[5-[1-[2-[4-[8-fluoro-6-hydroxy-7-(1,1,4-trioxo-1,2,5-thiadiazolidin-2-yl)-2-naphthyl]-3,6-dihydro-2H-pyridin-1-yl]-2-oxo-ethyl]-4-piperidyl]-3-methyl-2-oxo-benzimidazol-1-yl]piperidine-2,6-dione] | 10 to 50 | 50 to 200
